Reference: the NIST ThermoML archive (doi:10.1021/je7006549)

Columns and labels:
[1] = 101 kPa, Liquid
[2] = mn = molality of the nth substance listed, in mol/kg; conditions: 101 kPa, Liquid

c1ccccc1 [benzene]
[1]
Conditions	mass density [kg/m3]	viscosity [mPa·s]
303.15 K	868	0.564
308.15 K	862.2	0.5232
313.15 K	857	0.5001
318.15 K	851.6	0.4714
323.15 K	846.3	0.4397
328.15 K	840.7	0.4145
333.15 K	835.4	0.3932

CC1=CC(=O)c2ccccc2C1=O [2-methyl-1,4-naphthalenedione] + Cc1ccc(C)cc1
[2]
Conditions	mass density [kg/m3]	viscosity [mPa·s]
303.15 K, m1 = 0.0454	854	0.5859
303.15 K, m1 = 0.0902	856	0.5904
303.15 K, m1 = 0.1361	858.1	0.5958
303.15 K, m1 = 0.1815	860.1	0.6048
303.15 K, m1 = 0.2267	862.1	0.6092
303.15 K, m1 = 0.2724	864.1	0.6161
308.15 K, m1 = 0.0454	849.7	0.5528
308.15 K, m1 = 0.0902	851.7	0.5581
308.15 K, m1 = 0.1361	853.8	0.5631
308.15 K, m1 = 0.1815	855.8	0.5716
308.15 K, m1 = 0.2267	857.8	0.5748
308.15 K, m1 = 0.2724	859.8	0.582
313.15 K, m1 = 0.0454	845.2	0.5222
313.15 K, m1 = 0.0902	847.2	0.5274
313.15 K, m1 = 0.1361	849.3	0.5349
313.15 K, m1 = 0.1815	851.3	0.5396
313.15 K, m1 = 0.2267	853.3	0.543
313.15 K, m1 = 0.2724	855.3	0.5477
318.15 K, m1 = 0.0454	840.7	0.4999
318.15 K, m1 = 0.0902	842.7	0.5047
318.15 K, m1 = 0.1361	844.8	0.5097
318.15 K, m1 = 0.1815	846.8	0.5152
318.15 K, m1 = 0.2267	848.8	0.5183
318.15 K, m1 = 0.2724	850.8	0.5242
323.15 K, m1 = 0.0454	836.5	0.4686
323.15 K, m1 = 0.0902	838.5	0.4737
323.15 K, m1 = 0.1361	840.6	0.477
323.15 K, m1 = 0.1815	842.6	0.4824
323.15 K, m1 = 0.2267	844.6	0.4864
323.15 K, m1 = 0.2724	846.6	0.4907
328.15 K, m1 = 0.0454	831.9	0.4467
328.15 K, m1 = 0.0902	833.9	0.4509
328.15 K, m1 = 0.1361	836	0.456
328.15 K, m1 = 0.1815	838	0.4615
328.15 K, m1 = 0.2267	840	0.4633
328.15 K, m1 = 0.2724	842	0.4698
333.15 K, m1 = 0.0454	827.6	0.4225
333.15 K, m1 = 0.0902	829.6	0.4258
333.15 K, m1 = 0.1361	831.7	0.4309
333.15 K, m1 = 0.1815	833.7	0.4364
333.15 K, m1 = 0.2267	835.7	0.4384
333.15 K, m1 = 0.2724	837.7	0.4429

c1ccccc1 [benzene] + CC1=CC(=O)c2ccccc2C1=O
[2], m2 = 0
Conditions	mass density [kg/m3]	viscosity [mPa·s]
303.15 K	868	0.564
308.15 K	862.2	0.5232
313.15 K	857	0.5001
318.15 K	851.6	0.4714
323.15 K	846.3	0.4397
328.15 K	840.7	0.4145
333.15 K	835.4	0.3932

CC1=CC(=O)c2ccccc2C1=O [2-methyl-1,4-naphthalenedione] + Cc1ccccc1
[2]
Conditions	mass density [kg/m3]	viscosity [mPa·s]
303.15 K, m1 = 0.0454	859.6	0.5365
303.15 K, m1 = 0.0909	861.7	0.544
303.15 K, m1 = 0.1365	863.8	0.5487
303.15 K, m1 = 0.1817	865.9	0.5572
303.15 K, m1 = 0.227	868	0.5612
303.15 K, m1 = 0.2728	870.1	0.5683
308.15 K, m1 = 0.0454	855	0.5088
308.15 K, m1 = 0.0909	857.1	0.516
308.15 K, m1 = 0.1365	859.2	0.5185
308.15 K, m1 = 0.1817	861.3	0.5246
308.15 K, m1 = 0.227	863.4	0.5277
308.15 K, m1 = 0.2728	865.5	0.5346
313.15 K, m1 = 0.0454	850	0.4814
313.15 K, m1 = 0.0909	852.1	0.488
313.15 K, m1 = 0.1365	854.2	0.4902
313.15 K, m1 = 0.1817	856.3	0.4955
313.15 K, m1 = 0.227	858.4	0.4987
313.15 K, m1 = 0.2728	860.5	0.5051
318.15 K, m1 = 0.0454	845.6	0.4535
318.15 K, m1 = 0.0909	847.7	0.4582
318.15 K, m1 = 0.1365	849.8	0.463
318.15 K, m1 = 0.1817	851.9	0.4677
318.15 K, m1 = 0.227	854	0.4753
318.15 K, m1 = 0.2728	856.1	0.4775
323.15 K, m1 = 0.0454	840.8	0.4321
323.15 K, m1 = 0.0909	842.9	0.4362
323.15 K, m1 = 0.1365	845	0.439
323.15 K, m1 = 0.1817	847.1	0.443
323.15 K, m1 = 0.227	849.2	0.4459
323.15 K, m1 = 0.2728	851.3	0.4515
328.15 K, m1 = 0.0454	836.1	0.413
328.15 K, m1 = 0.0909	838.2	0.4147
328.15 K, m1 = 0.1365	840.3	0.4176
328.15 K, m1 = 0.1817	842.4	0.4208
328.15 K, m1 = 0.227	844.5	0.4242
328.15 K, m1 = 0.2728	846.6	0.4303
333.15 K, m1 = 0.0454	831.2	0.3872
333.15 K, m1 = 0.0909	833.3	0.3909
333.15 K, m1 = 0.1365	835.4	0.3927
333.15 K, m1 = 0.1817	837.5	0.398
333.15 K, m1 = 0.227	839.6	0.4065
333.15 K, m1 = 0.2728	841.7	0.4137

Cc1ccc(C)cc1 [1,4-dimethylbenzene]
[1]
Conditions	mass density [kg/m3]	viscosity [mPa·s]
303.15 K	852	0.5726
308.15 K	847.7	0.5374
313.15 K	843.2	0.5178
318.15 K	838.7	0.4882
323.15 K	834.5	0.4595
328.15 K	829.9	0.4439
333.15 K	825.6	0.4189

Cc1cccc(C)c1 [1,3-dimethylbenzene]
[1]
Conditions	mass density [kg/m3]	viscosity [mPa·s]
303.15 K	855.6	0.549
308.15 K	851.1	0.5201
313.15 K	846.9	0.4967
318.15 K	842.4	0.4817
323.15 K	838.3	0.444
328.15 K	833.7	0.435
333.15 K	829.6	0.413

Cc1ccccc1C [1,2-dimethylbenzene]
[1]
Conditions	mass density [kg/m3]	viscosity [mPa·s]
303.15 K	872.1	0.7404
308.15 K	867.7	0.69
313.15 K	864	0.6451
318.15 K	859.7	0.6117
323.15 K	855.5	0.5711
328.15 K	851.2	0.5433
333.15 K	847.1	0.5105

CCc1ccccc1 [ethylbenzene] + CC1=CC(=O)c2ccccc2C1=O
[2], m2 = 0
Conditions	mass density [kg/m3]	viscosity [mPa·s]
303.15 K	858	0.5986
308.15 K	853.5	0.5691
313.15 K	849.5	0.5372
318.15 K	844.7	0.506
323.15 K	840.5	0.4805
328.15 K	835.9	0.4566
333.15 K	831.6	0.4371

CC1=CC(=O)c2ccccc2C1=O [2-methyl-1,4-naphthalenedione] + CCc1ccccc1
[2]
Conditions	mass density [kg/m3]	viscosity [mPa·s]
303.15 K, m1 = 0.0451	859.9	0.6083
303.15 K, m1 = 0.0903	861.8	0.6164
303.15 K, m1 = 0.1354	863.7	0.6218
303.15 K, m1 = 0.1805	865.6	0.6317
303.15 K, m1 = 0.2256	867.5	0.6333
303.15 K, m1 = 0.271	869.4	0.6361
308.15 K, m1 = 0.0451	855.4	0.5735
308.15 K, m1 = 0.0903	857.3	0.5794
308.15 K, m1 = 0.1354	859.2	0.5853
308.15 K, m1 = 0.1805	861.1	0.5893
308.15 K, m1 = 0.2256	863	0.5948
308.15 K, m1 = 0.271	864.9	0.5991
313.15 K, m1 = 0.0451	851.4	0.5439
313.15 K, m1 = 0.0903	853.3	0.5484
313.15 K, m1 = 0.1354	855.2	0.5543
313.15 K, m1 = 0.1805	857.1	0.557
313.15 K, m1 = 0.2256	859	0.5611
313.15 K, m1 = 0.271	860.9	0.5673
318.15 K, m1 = 0.0451	846.6	0.5104
318.15 K, m1 = 0.0903	848.5	0.5148
318.15 K, m1 = 0.1354	850.4	0.5192
318.15 K, m1 = 0.1805	852.3	0.5241
318.15 K, m1 = 0.2256	854.2	0.5283
318.15 K, m1 = 0.271	856.1	0.533
323.15 K, m1 = 0.0451	842.4	0.4832
323.15 K, m1 = 0.0903	844.3	0.4881
323.15 K, m1 = 0.1354	846.2	0.4937
323.15 K, m1 = 0.1805	848.1	0.4969
323.15 K, m1 = 0.2256	850	0.5015
323.15 K, m1 = 0.271	851.9	0.5054
328.15 K, m1 = 0.0451	837.8	0.4615
328.15 K, m1 = 0.0903	839.7	0.4648
328.15 K, m1 = 0.1354	841.6	0.4715
328.15 K, m1 = 0.1805	843.5	0.474
328.15 K, m1 = 0.2256	845.4	0.4758
328.15 K, m1 = 0.271	847.3	0.4806
333.15 K, m1 = 0.0451	833.5	0.4405
333.15 K, m1 = 0.0903	835.4	0.444
333.15 K, m1 = 0.1354	837.3	0.4475
333.15 K, m1 = 0.1805	839.2	0.451
333.15 K, m1 = 0.2256	841.1	0.4546
333.15 K, m1 = 0.271	843	0.4581

Cc1ccccc1 [toluene]
[1]
Conditions	mass density [kg/m3]	viscosity [mPa·s]
303.15 K	857.5	0.5253
308.15 K	852.9	0.4933
313.15 K	847.9	0.4717
318.15 K	843.5	0.4491
323.15 K	838.7	0.4244
328.15 K	834	0.4082
333.15 K	829.1	0.3835

Cc1ccc(C)cc1 [1,4-dimethylbenzene] + CC1=CC(=O)c2ccccc2C1=O
[2], m2 = 0
Conditions	mass density [kg/m3]	viscosity [mPa·s]
303.15 K	852	0.5726
308.15 K	847.7	0.5374
313.15 K	843.2	0.5178
318.15 K	838.7	0.4882
323.15 K	834.5	0.4595
328.15 K	829.9	0.4439
333.15 K	825.6	0.4189

CCc1ccccc1 [ethylbenzene]
[1]
Conditions	mass density [kg/m3]	viscosity [mPa·s]
303.15 K	858	0.5986
308.15 K	853.5	0.5691
313.15 K	849.5	0.5372
318.15 K	844.7	0.506
323.15 K	840.5	0.4805
328.15 K	835.9	0.4566
333.15 K	831.6	0.4371
